Values of other authors as cited in patent EP1815850B1, “Controlled release formulation of divalproic acid and its derivatives” (TEVA PHARMACEUTICAL INDUSTRIES LTD., priority 2006, dated 2007).

Conditions: in adults

- elimination half-life: six and seventeen
SMILES: CCCC(CCC)C(=O)O [valproic acid, 2-Propylpentanoic acid]
